Source: ChEMBL document CHEMBL4257571, “Discovery of 5-(2-chloro-4'-(1H-imidazol-1-yl)-[1,1'-biphenyl]-4-yl)-1H-tetrazole as potent and orally efficacious S-nitrosoglutathione reductase (GSNOR) inhibitors for the potential treatment of COPD” (Bioorg Med Chem Lett, 2018)
Converted amounts (≈) assume the structure as drawn.

Assays:
[1] = biological target: Alcohol dehydrogenase class-3 (Mus musculus, UniProt P28474); test: Inhibition of mouse GSNOR assessed as reduction in NADH consumption after 3 mins by spectrophotometric analysis
Sequence of Alcohol dehydrogenase class-3 (Mus musculus, UniProt P28474) (P28474 whole entry): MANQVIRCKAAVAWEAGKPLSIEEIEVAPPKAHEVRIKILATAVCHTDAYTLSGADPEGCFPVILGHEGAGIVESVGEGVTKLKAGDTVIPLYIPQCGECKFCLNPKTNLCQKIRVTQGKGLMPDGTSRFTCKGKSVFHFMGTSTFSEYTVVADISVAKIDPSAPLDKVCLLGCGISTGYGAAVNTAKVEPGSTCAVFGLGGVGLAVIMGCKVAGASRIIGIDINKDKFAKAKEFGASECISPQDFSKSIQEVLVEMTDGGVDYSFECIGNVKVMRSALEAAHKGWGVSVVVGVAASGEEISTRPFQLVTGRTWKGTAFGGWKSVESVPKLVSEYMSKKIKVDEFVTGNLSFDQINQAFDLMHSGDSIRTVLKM

Homo sapiens = species on record: Homo sapiens; test: Inhibition of chloride channel (unknown origin) at 10 uM relative to control
[2] = Effective permeability of the compound by PAMPA assay; format: ADME; settings: read-out: Peff
Mus musculus = test: Anti-inflammatory activity in C57BL/6 mouse model of cigarette smoke induced chronic obstructive pulmonary disease assessed as macrophages count in bronchoalveolar lavage at 30 mg/kg, po administered once daily for 7 days 1 hr prior to first smoke exposure and measured on day 8 after last smoke exposure post single drug treatment by Leishman's staining based assay; format: functional
hERG (KCNH2) = hERG (KCNH2) (Homo sapiens, UniProt Q12809); test: Inhibition of human ERG at 10 uM by patch clamp assay relative to control
Sequence of hERG (KCNH2) (Q12809 whole entry): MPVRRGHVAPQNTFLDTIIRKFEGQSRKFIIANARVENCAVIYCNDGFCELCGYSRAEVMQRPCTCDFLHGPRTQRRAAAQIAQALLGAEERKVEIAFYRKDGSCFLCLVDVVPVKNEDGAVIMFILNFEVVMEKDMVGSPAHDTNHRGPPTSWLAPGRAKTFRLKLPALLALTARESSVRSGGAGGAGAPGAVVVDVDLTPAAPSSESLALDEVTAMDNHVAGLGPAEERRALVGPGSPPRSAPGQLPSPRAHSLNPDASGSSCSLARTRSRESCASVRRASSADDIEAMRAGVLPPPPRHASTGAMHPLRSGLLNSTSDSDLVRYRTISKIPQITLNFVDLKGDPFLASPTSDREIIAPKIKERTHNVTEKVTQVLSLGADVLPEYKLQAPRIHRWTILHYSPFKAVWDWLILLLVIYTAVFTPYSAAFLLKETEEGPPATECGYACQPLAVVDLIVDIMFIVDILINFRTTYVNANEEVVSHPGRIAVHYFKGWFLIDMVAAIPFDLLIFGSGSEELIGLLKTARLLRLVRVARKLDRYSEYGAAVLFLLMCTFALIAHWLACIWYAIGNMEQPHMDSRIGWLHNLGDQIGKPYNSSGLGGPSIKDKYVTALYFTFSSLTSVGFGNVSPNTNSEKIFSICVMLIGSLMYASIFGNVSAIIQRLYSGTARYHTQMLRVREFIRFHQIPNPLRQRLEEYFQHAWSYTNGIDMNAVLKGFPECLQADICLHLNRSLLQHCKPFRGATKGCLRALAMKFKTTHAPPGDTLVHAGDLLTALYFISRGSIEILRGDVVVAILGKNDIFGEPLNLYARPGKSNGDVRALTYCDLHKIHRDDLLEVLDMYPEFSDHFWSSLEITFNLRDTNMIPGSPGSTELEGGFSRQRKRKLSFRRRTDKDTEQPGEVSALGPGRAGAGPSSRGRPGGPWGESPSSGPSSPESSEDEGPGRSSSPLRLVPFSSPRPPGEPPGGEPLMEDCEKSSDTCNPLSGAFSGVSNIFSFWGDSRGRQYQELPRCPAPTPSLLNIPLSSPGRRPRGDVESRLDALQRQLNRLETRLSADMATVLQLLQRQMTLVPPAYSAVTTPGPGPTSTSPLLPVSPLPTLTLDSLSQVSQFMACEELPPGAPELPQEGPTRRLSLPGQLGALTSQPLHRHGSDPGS

[3] = biological target: Alcohol dehydrogenase class-3 (Homo sapiens, UniProt P11766); test: Inhibition of human GSNOR assessed as reduction in NADH consumption after 3 mins by spectrophotometric analysis
Sequence of Alcohol dehydrogenase class-3 (Homo sapiens, UniProt P11766) (P11766 whole entry): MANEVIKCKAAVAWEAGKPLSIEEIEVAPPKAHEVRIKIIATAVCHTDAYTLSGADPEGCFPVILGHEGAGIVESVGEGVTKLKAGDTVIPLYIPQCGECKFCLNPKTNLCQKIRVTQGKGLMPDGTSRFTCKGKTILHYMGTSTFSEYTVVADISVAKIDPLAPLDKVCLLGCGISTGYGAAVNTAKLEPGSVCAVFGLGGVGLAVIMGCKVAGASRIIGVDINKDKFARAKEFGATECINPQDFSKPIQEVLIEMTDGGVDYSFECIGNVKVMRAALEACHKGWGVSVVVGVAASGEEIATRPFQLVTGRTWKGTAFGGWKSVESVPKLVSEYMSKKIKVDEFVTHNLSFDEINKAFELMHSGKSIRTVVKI

[4] = Inhibition of MT3 receptor (unknown origin) at 10 uM relative to control
[5] = Aqueous solubility of compound in DMSO; format: physicochemical
CYP1A2 = biological target: T1, CYP1A2 (Homo sapiens, UniProt P05177); test: Inhibition of CYP1A2 in human liver microsomes at 10 uM after 20 mins in presence of NADPH by LC/MS/MS analysis relative to control; format: ADME; settings: liver microsomes
T1 sequence (P05177 whole entry): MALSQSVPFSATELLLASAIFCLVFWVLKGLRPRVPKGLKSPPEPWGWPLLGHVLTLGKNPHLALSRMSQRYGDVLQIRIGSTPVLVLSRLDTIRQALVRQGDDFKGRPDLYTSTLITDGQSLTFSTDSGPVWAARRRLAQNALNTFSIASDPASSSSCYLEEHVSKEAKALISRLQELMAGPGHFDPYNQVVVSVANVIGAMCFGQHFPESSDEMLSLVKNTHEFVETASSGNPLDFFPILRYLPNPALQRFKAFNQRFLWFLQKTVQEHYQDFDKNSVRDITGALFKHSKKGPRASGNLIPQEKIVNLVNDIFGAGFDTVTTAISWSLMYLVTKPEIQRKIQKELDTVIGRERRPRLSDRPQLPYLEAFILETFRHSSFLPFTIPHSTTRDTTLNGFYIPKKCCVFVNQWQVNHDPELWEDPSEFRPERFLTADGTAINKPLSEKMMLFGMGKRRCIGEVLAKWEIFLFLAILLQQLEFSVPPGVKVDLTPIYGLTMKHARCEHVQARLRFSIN

[6] = biological target: T2, Carbonyl reductase [NADPH] 1 (Homo sapiens) (UniProt P16152); test: Inhibition of CBR1 (unknown origin) assessed as reduction in NADP+ production at 10 uM by spectrophotometric analysis relative to control
T2 sequence (whole entry): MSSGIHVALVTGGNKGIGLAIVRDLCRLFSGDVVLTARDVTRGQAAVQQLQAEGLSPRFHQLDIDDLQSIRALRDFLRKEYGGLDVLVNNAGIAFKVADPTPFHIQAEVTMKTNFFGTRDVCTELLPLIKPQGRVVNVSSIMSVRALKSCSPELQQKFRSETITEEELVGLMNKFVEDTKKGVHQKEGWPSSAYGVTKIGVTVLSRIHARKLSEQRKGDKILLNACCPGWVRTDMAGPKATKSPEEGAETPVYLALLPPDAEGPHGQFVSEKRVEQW

[7] = AUC (0 to 24 hrs) in C57/BL6 mouse at 30 mg/kg, po; format: ADME, organism-based; parameters: time < 24 hr, dose 30 mg/kg, route oral; settings: in vivo

- IC50 [1]: 7.1 nM
- inhibition (Homo sapiens): 50%
- Papp [2]: 0.12 ×10⁻⁶ cm/s
- IC50 [3]: 9.2 nM
- inhibition [4]: 100%
- solubility [5]: 20 mg/mL (≈ 62 mM)
- inhibition at 20 min, 10 µM (CYP1A2): 32%
- inhibition [6]: 24%
- AUC(0-t) at 24 h [7]: 69900 ng·h/mL
SMILES: Clc1cc(-c2nnn[nH]2)ccc1-c1ccc(-n2ccnc2)cc1
- Activity (Mus musculus): 61%
- inhibition at 10 µM (hERG (KCNH2)): 11%
